This passage reports IC50 and IC90 results from patent US20130231296A1, “NEW DRUG COMBINATIONS FOR THE TREATMENT OF MALARIA” (Bioagency AG, priority 2010, published 2013).

The test system of one experiment is P. falciparum 3D7. The experiment is described as follows: in vitro inhibition of parasite growth by [3H] hypoxanthine incorporation, drugs alone. It counts as cell-based. The settings on record: Plasmodium falciparum; for IC50: 3D7, P. falciparum 3D7 (chloroquine sensitive). The protocol: (§1) 1. Initial determination of the in vitro efficacy profile (IC50/IC90) of FOS and PIP against a drug sensitive and a drug resistant strain of Plasmodium falciparum. P. falciparum 3D7 is chloroquine sensitive, P. falciparum K1 is insensitive to chloroquine
(§2) in vitro inhibition of parasite growth was assessed by the incorporation of [3H] hypoxanthine, including chloroquine (CQ) and artesunate (ASN) as positive control drugs.
(§3) The first set of in vitro experiments established the IC50 values of the drugs alone, followed by Fixed Ratio Combination assays of FOS+PIP with FOS+CND as a control combination. Chloroquine and artesunate were included in all assays to ensure the validity of the test.
(§4) The first sets of experiments were carried out to establish the IC50 and IC90 values of the drugs on their own. The drugs were evaluated in 3 separate experiments (see Tables 1 & 2)

Another experiment has as its system P. falciparum K1. Described as above. The settings on record: Plasmodium falciparum; for IC50: K1, P. falciparum K1 (insensitive to chloroquine). It counts as cell-based. The protocol: as §1, §2, §3, §4
Where [1] appears, read: 3D7, P. falciparum 3D7, Experiment 1.
The mark [2] stands for this setting: 3D7, P. falciparum 3D7, Experiment 2.
Where [3] appears, read: 3D7, P. falciparum 3D7, Experiment 3.

Where two headings read alike, the source gives them in different places.

In the case of `Clc1ccc2c(N3CCN(CCCN4CCN(c5ccnc6cc(Cl)ccc56)CC4)CC3)ccnc2c1` [PIP, 7-chloro-4-[4-[3-[4-(7-chloroquinolin-4-yl)piperazin-1-yl]propyl]piperazin-1-yl]quinoline], the IC50 with P. falciparum 3D7 (Experiment 1) is 10 ng/mL; in the experiment with P. falciparum 3D7 (Experiment 2), 6 ng/mL; in the experiment on P. falciparum 3D7 (Experiment 3), 10 ng/mL; in the experiment on P. falciparum K1 (Experiment 1, read-out: IC50), 20 ng/mL; in the experiment on P. falciparum K1 (Experiment 2, read-out: IC50), 20 ng/mL; in the experiment on P. falciparum K1 (Experiment 3, read-out: IC50), 10 ng/mL. Also, the IC90 in the experiment with P. falciparum 3D7 (setting [1]) amounted to 18 ng/mL; in the experiment with P. falciparum 3D7 (setting [2]), 20 ng/mL; with P. falciparum 3D7 (setting [3]), 10 ng/mL; in the experiment on P. falciparum K1 (K1, P. falciparum K1, Experiment 1, read-out: IC90) it was 60 ng/mL; in the experiment on P. falciparum K1 (K1, P. falciparum K1, Experiment 2, read-out: IC90) it was 50 ng/mL; with P. falciparum K1 (K1, P. falciparum K1, Experiment 3, read-out: IC90), 20 ng/mL.

On to `C[C@H]1[C@H](OC(=O)CCC(=O)O)O[C@@H]2O[C@@]3(C)CC[C@H]4[C@H](C)CC[C@@H]1[C@@]24OO3` [ASN, Artesunate], for which the IC50 came to 1.9 ng/mL in the experiment with P. falciparum 3D7 (Experiment 1); 2 ng/mL with P. falciparum 3D7 (Experiment 2); 0.8 ng/mL with P. falciparum 3D7 (Experiment 3); 5 ng/mL in the experiment with P. falciparum K1 (Experiment 1); 2 ng/mL in the experiment with P. falciparum K1 (Experiment 2); 2 ng/mL in the experiment with P. falciparum K1 (Experiment 3). Further, the IC90 with P. falciparum 3D7 (setting [1]) is 7 ng/mL; with P. falciparum 3D7 (setting [2]), 2 ng/mL; in the experiment on P. falciparum 3D7 (setting [3]), 2 ng/mL; in the experiment with P. falciparum K1 (K1, P. falciparum K1, Experiment 1), 6 ng/mL; in the experiment with P. falciparum K1 (K1, P. falciparum K1, Experiment 2) it was 3 ng/mL; with P. falciparum K1 (K1, P. falciparum K1, Experiment 3), 4 ng/mL.

What is called IC50 is the midpoint of a concentration-inhibition curve. For orientation: IC90 means the concentration needed for an effect of 90%.
